The target of assay [1] is T1, human LTA4 hydrolase (Homo sapiens, UniProt P09960).
T1 sequence (P09960 1-611): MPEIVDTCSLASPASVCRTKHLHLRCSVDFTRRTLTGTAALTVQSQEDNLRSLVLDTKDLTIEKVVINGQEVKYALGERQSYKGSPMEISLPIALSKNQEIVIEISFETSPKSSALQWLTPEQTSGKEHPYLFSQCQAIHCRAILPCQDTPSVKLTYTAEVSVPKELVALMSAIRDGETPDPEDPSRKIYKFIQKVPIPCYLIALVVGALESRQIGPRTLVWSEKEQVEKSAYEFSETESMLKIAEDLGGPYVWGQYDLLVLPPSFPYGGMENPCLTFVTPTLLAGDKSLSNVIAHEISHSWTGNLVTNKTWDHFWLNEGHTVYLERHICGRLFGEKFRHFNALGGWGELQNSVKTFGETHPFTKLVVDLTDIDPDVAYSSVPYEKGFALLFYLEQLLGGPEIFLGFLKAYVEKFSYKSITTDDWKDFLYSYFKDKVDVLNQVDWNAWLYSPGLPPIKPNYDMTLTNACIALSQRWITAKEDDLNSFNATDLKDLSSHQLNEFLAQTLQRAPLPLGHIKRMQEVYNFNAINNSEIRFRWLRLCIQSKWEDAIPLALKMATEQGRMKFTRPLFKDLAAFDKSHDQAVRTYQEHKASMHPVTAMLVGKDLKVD
Nature of the assay: LTA4H Enzyme assay (peptidase, Arg-AMC cleavage). The assay is classed as biochemical. The following applies: LTA4H enzyme 1 nM, Arg-AMC substrate 50 μM, room temperature 1 h, fluorescence 380/460 nm. The procedure: The compounds of the invention are assessed for the ability to interact with human LTA4 hydrolase in an enzymatic assay that measures the ability of the enzyme to cleave the peptide bond of arginyl-aminomethylcoumarin (Arg-AMC). LTA4H Enzyme (1 nM final), Arg-AMC substrate (50 μM final), and compound are combined in a reaction buffer (50 mM Tris-HCl (pH 7.5), 100 mM KCl, 0.5% bovine serum albumin) at room temperature for 1 h. The formation of product is assessed by measuring the fluorescence of aminomethylcoumarin product (excitation wavelength 380 nm/emission wavelength 460 nm). In general, the preferred potency range (IC50) of compounds in the LTA4H Enzyme assay is between 0.1 nM to 10 μM, the more preferred potency range is 0.1 nM to 0.1 μM, and the most preferred potency range is 0.1 nM to 10 nM.

For assay [2], the system named is LTB4 synthesis in human whole blood. The assay can be described thus: human whole blood (HWB) assay, inhibition of LTB4 production. The class given is cell-based. The settings on record: heparinized human whole blood, calcimycin 20 μM stimulation, plasma LTB4. Here is the method: The compounds of the invention are additionally tested in a human whole blood (HWB) assay to determine their ability to inhibit the synthesis of LTB4 in a cellular system. Compounds are combined with heparinized human whole blood and incubated for 15 minutes at 37° C. Calcimycin (20 μM final, prepared in phosphate-buffered saline, pH 7.4) is then added and the mixture is incubated for another 30 minutes at 37° C. The samples are centrifuged for 5 min at low speed (1500×g) and the plasma layer is removed. Plasma LTB4 concentrations are then measured using an antibody-based homogenous time-resolved fluorescence method (CisBio, Bedford, Mass.). In general, the preferred potency range (IC50) of compounds in the HWB assay is between 10 nM to 10 μM, the more preferred potency range is 10 nM to 1 μM, and the most preferred potency range is 10 nM to 100 nM.

Broadly, the IC50 is the concentration at which inhibition is half-maximal. Regarding `CN(Cc1nc2cc(Oc3ccc(-c4ccn[nH]4)cc3)ccc2[nH]1)[C@H]1CCOC1` [Example 77, Methyl-{5-[4-(2H-pyrazol-3-yl)-phenoxy]-1H-benzoimidazol-2-ylmethyl}-(S)-tetrahydro-furan-3-yl-amine], the IC50 is 0.099 nM in assay [1] and 88 nM in assay [2].
For `CC(=O)N1CCN(Cc2ccc3cc(Oc4ccc(-c5ccn[nH]5)cc4)ccc3n2)CC1` [Example 247, 1-(4-{6-[4-(2H-Pyrazol-3-yl)-phenoxy]-quinolin-2-ylmethyl}-piperazin-1-yl)-ethanone], the IC50 in assay [1] is 0.21 nM; in assay [2] it was 190 nM.
In the case of `CC(=O)N1CC2CCC(C1)N2Cc1ccc2cc(Oc3ccc(-c4ccn[nH]4)cn3)ccc2n1` [Example 24, 1-(8-{6-[5-(2H-Pyrazol-3-yl)-pyridin-2-yloxy]-quinolin-2-ylmethyl}-3,8-diaza-bicyclo[3.2.1]oct-3-yl)-ethanone], the IC50 in assay [1] stood at 0.33 nM; in assay [2], 99 nM.
The corresponding values for `O=C(O)c1nc2cc(Oc3ccc(-c4cc[nH]n4)cc3)ccc2[nH]1` [Example 69, 5-[4-(1H-Pyrazol-3-yl)-phenoxy]-1H-benzoimidazole-2-carboxylic acid] are 3.9 nM and 650 nM.
The corresponding values for `c1cc(-c2ccc(Oc3ccc4[nH]c(C5(N6CCOCC6)CC5)nc4c3)cc2)[nH]n1` [Example 59, 2-(1-Morpholin-4-yl-cyclopropyl)-5-[4-(2H-pyrazol-3-yl)-phenoxy]-1H-benzoimidazole] are 0.13 nM and 130 nM.
`CC(=O)N1CCN(CCCn2cc3cc(Oc4ccc(-c5ccn[nH]5)cc4)ccc3n2)CC1` [Example 95, 1-[4-(3-{5-[4-(2H-Pyrazol-3-yl)-phenoxy]-indazol-2-yl}-propyl)-piperazin-1-yl]-ethanone]: the IC50 was 0.83 nM in assay [1] and 150 nM in assay [2].
Taken in the same sequence, the figures for `CCOCC1CCN(Cc2nc3cc(Oc4ccc(-c5ccn[nH]5)cc4)ccc3[nH]2)CC1` [Example 193, 2-(4-Ethoxymethyl-piperidin-1-ylmethyl)-5-[4-(2H-pyrazol-3-yl)-phenoxy]-1H-benzoimidazole] were 0.13 nM and 170 nM.
Turning to `CC(=O)N[C@@H]1CCN(CCn2cc3cc(Oc4ccc(-c5ccn[nH]5)cc4)ccc3n2)C1` [Example 200, N-[(R)-1-(2-{5-[4-(2H-Pyrazol-3-yl)-phenoxy]-indazol-2-yl}-ethyl)-pyrrolidin-3-yl]-acetamide], the IC50 is 0.47 nM in assay [1] and 190 nM in assay [2].
Taken in the same sequence, the figures for `c1cc(-c2ccc(Oc3ccc4[nH]c(CC5CCOCC5)nc4c3)cc2)[nH]n1` [Example 202, 5-[4-(2H-Pyrazol-3-yl)-phenoxy]-2-(tetrahydro-pyran-4-ylmethyl)-1H-benzoimidazole] were 0.32 nM and 200 nM.
Taken in the same sequence, the figures for `O=C1OC[C@@H]2CN(Cc3ccc4cc(Oc5ccc(-c6ccn[nH]6)cn5)ccc4n3)CCN12` [Example 16, (S)-7-{6-[5-(2H-pyrazol-3-yl)-pyridin-2-yloxy]-quinolin-2-ylmethyl}-hexahydro-oxazolo[3,4-a]pyrazin-3-one] were 1.1 nM and 250 nM.
The corresponding values for `c1cc(-c2ccc(Oc3ccc4[nH]c(CNCC5CCOCC5)nc4c3)cc2)[nH]n1` [Example 106, {5-[4-(2H-Pyrazol-3-yl)-phenoxy]-1H-benzoimidazol-2-ylmethyl}-(tetrahydro-pyran-4-ylmethyl)-amine] are 0.17 nM and 200 nM.
For the compound `CN(Cc1nc2cc(Oc3ccc(-c4ccn[nH]4)cc3)ccc2[nH]1)CC1COCCO1` (centres unmarked) [Example 87, [1,4]Dioxan-2-ylmethyl-methyl-{5-[4-(2H-pyrazol-3-yl)-phenoxy]-1H-benzoimidazol-2-ylmethyl}-amine], the IC50 in assay [1] is 0.36 nM; in assay [2], 120 nM.
Taken in the same sequence, the figures for `Cc1nc2ccc(Oc3ccc(-c4ccn[nH]4)cc3)cc2cc1CN1CCCC1` [Example 256, 2-Methyl-6-[4-(2H-pyrazol-3-yl)-phenoxy]-3-pyrrolidin-1-ylmethyl-quinoline] were 1.6 nM and 480 nM.
Turning to `CN(C)C(=O)CC1CCN(CC2Cc3ccc(Oc4ccc(-c5ccn[nH]5)cc4)cc3O2)CC1` (centres unmarked) [Example 169, N,N-Dimethyl-2-(1-{6-[4-(2H-pyrazol-3-yl)-phenoxy]-2,3-dihydro-benzofuran-2-ylmethyl}-piperidin-4-yl)-acetamide], the IC50 in assay [1] stood at 0.25 nM; in assay [2], 120 nM.
With `O=C(CNCc1ccc2cc(Oc3ccc(-c4ccn[nH]4)cn3)ccc2n1)N1CCCC1` [Example 45, 2-({6-[5-(2H-Pyrazol-3-yl)-pyridin-2-yloxy]-quinolin-2-ylmethyl}-amino)-1-pyrrolidin-1-yl-ethanone], the IC50 stood at 2.8 nM in assay [1] and 420 nM in assay [2].
The corresponding values for `CC(=O)N1CC(CN(C)Cc2ccc3cc(Oc4ccc(-c5ccn[nH]5)cn4)ccc3n2)C1` [Example 36, 1-{3-[(Methyl-{6-[5-(2H-pyrazol-3-yl)-pyridin-2-yloxy]-quinolin-2-ylmethyl}-amino)-methyl]-azetidin-1-yl}-ethanone] are 0.98 nM and 240 nM.
On to `CN(Cc1nc2cc(Oc3ccc(-c4ccn[nH]4)cc3)ccc2[nH]1)[C@H]1CCCC[C@@H]1O` [Example 229, (1S,2S)-2-(Methyl-{5-[4-(2H-pyrazol-3-yl)-phenoxy]-1H-benzoimidazol-2-ylmethyl}-amino)-cyclohexanol], for which the IC50 in assay [1] was found to be 0.22 nM; in assay [2], 190 nM.
For `CC(=O)N1CCCN(CCC2COc3cc(Oc4ccc(-c5ccn[nH]5)cn4)ccc32)CC1` (centres unmarked) [Example 135, 1-[4-(2-{6-[5-(2H-Pyrazol-3-yl)-pyridin-2-yloxy]-2,3-dihydro-benzofuran-3-yl}-ethyl)-[1,4]diazepan-1-yl]-ethanone], the IC50 was found to be 0.56 nM in assay [1] and 180 nM in assay [2].
Consider `CO[C@H]1CCN(Cc2nc3cc(Oc4ccc(-c5ccn[nH]5)cc4)ccc3[nH]2)C1` [Example 226, 2-((S)-3-Methoxy-pyrrolidin-1-ylmethyl)-5-[4-(2H-pyrazol-3-yl)-phenoxy]-1H-benzoimidazole], for which the figures for the IC50 in assay [1] and in assay [2] were 0.3 nM and 170 nM, respectively.
Taken in the same sequence, the figures for `CC(C)C(=O)N1CCN(Cc2ccc3cc(Oc4ccc(-c5ccn[nH]5)cn4)ccc3n2)CC1` [Example 26, 2-Methyl-1-(4-{6-[5-(2H-pyrazol-3-yl)-pyridin-2-yloxy]-quinolin-2-ylmethyl}-piperazin-1-yl)-propan-1-one] were 0.57 nM and 130 nM.
Take `O=C1CC[C@@H](Cn2cc3cc(Oc4ccc(-c5ccn[nH]5)cc4)ccc3n2)N1` [Example 251, (S)-5-{5-[4-(2H-Pyrazol-3-yl)-phenoxy]-indazol-2-ylmethyl}-pyrrolidin-2-one]: the IC50 in assay [1] is 0.87 nM; in assay [2], 220 nM.
Taken in the same sequence, the figures for `c1cc(-c2ccc(Oc3ccc4[nH]c(CN5C[C@H]6CC[C@@H](C5)O6)nc4c3)cc2)[nH]n1` [Example 227, 3-{5-[4-(2H-Pyrazol-3-yl)-phenoxy]-1H-benzoimidazol-2-ylmethyl}-8-oxa-3-aza-bicyclo[3.2.1]octane] were 0.054 nM and 170 nM.

For the origin of these results see patent US9403830B2, “Inhibitors of leukotriene production” (Boehringer Ingelheim International GmbH, priority 2012, dated 2016).
